Laboratory results from US20250003969A1, “METHODS TO IDENTIFY AND TREAT SUBJECTS HAVING CORTICOSTEROID-RESISTANT INFLAMMATORY DISEASES” (priority 2013, published 2025).
Entries after “also recorded” stand apart in the source; their conditions may differ.

What was measured:
[1] = Bronchodilator responsiveness (FEV1 reversal with albuterol); assay type: in vivo, human
Source text: (§1) Study subjects. Thirty-nine adult asthmatics were enrolled in this study. […] Patients completed asthma questionnaires (ACQ) to assess their asthma control. […] Twelve healthy nonatopic subjects underwent bronchoscopy as controls. Smokers were excluded from participation in this study. Informed consent was obtained from all study participants before enrollment in this study.
26 adult asthma patients were enrolled. Sample collection involved assessment of patients with a clinical history of asthma, airflow limitation (baseline FEV1≤85% predicted) and either airway hyperresponsiveness (PC20 methacholine<8 mg/ml) or bronchodilator responsiveness (>12% improvement in FEV1% predicted after […] metered-dose inhaler albuterol).

[2] = test system: peripheral blood monocytes from asthmatics; assay: Effects of inhibitors on MKP-1 and IL-8 mRNA induction by H. parainfluenzae and on cellular response to corticosteroids (real time PCR); assay type: cell-based, human; conditions: for cellular sensitivity to corticosteroids in vitro (MKP-1 mRNA induction by DEX) in the presence of H. parainfluenzae: inhibitor 1 h, bacteria 15 min, then 3 h DEX, FIG. 4C; for MKP-1 mRNA induction by H. parainfluenzae / IL-8 mRNA induction by H. parainfluenzae: monocytes preincubated with inhibitor 1 h (TAK1 inhibitor 2 μM, others 10 μM); for MKP-1 mRNA induction by H. parainfluenzae: bacteria to cell ratio 1:1, FIG. 4A; for IL-8 mRNA induction by H. parainfluenzae: bacteria to cell ratio 1:1, FIG. 4B
Protocol: Cell culture and treatment. Peripheral blood mononuclear cells (PBMC) were isolated from asthma patients. Monocytes were prepared by negative selection using Human Monocyte Isolation Kit II (Milteniyi Biotech Inc., Auburn, CA). BAL macrophages were enriched by 3 h plastic adhesion. Cell purity was ≥95%. In all experiments, monocytes and BAL macrophages were cultured in the X-VIVO™ 15 serum free medium overnight; medium was replaced with X-VIVO™ 15 medium without antibiotics prior to addition of bacteria. Bacteria were added to 10^6 cells/ml in culture at 0.1 or 1 bacteria per cell.
In vitro response to corticosteroids in the presence of bacteria. 0.5×10^6 monocytes or 2.5×10^5 BAL macrophages per condition were cultured overnight in X-VIVO™ 15 media, treated with 0.1 to 1 bacteria per cell or 10 ng/ml of E. coli strain 0111: B4 LPS (Sigma-Aldrich Corp) for 15 min and stimulated with 10^−6 M dexamethasone (DEX) for an additional 3 h still in the presence of bacteria. Following incubation the cells were preserved in RLT buffer (Qiagen, Inc., Valencia, CA). RNA was extracted using RNAEASYR Mini kit (Qiagen), and analyzed by real-time PCR as previously described (Goleva E et al., J Allergy Clin Immunol 2012; 129: 687-93e1) for the expression of corticosteroid-regulated targets mitogen activated kinase phosphatase 1 (MKP-1), and IL-8. 18s RNA was measured as a house keeping gene. All primers were purchased from Applied Biosystems (Life Technologies Corporation, Carlsbad, CA). Standard curves for gene targets were generated using the fluorescent data from two-fold serial dilutions of total RNA of the highest expression sample. Quantities of each target gene in test samples were normalized to the corresponding levels of the housekeeping gene (18s RNA) in each sample. Fold induction and fold suppression by DEX of selected gene targets was calculated for cells cultured in media, with LPS or with bacteria.
The effects of inhibitors on cellular response to corticosteroids. To examine whether MAPK inhibition or transforming growth factor beta associated kinase 1 (TAK1) inhibition reverses the corticosteroid resistant response to pathogenic microbes, monocytes were pretreated with either TAK1 inhibitor (5Z)-7-Oxozeaenol, Curvularia sp. (Calbiochem, EMD Serono, Inc., Rockland, MA) (2 μM), the p38 inhibitor, SB203580 (10 μM) (Calbiochem) or the cocktail of the three MAPK inhibitors (SB203580, p38 inhibitor; PD98059, MEK1/ERK inhibitor (Invitrogen, Life Technologies, Grand Island, NY) and SP600125, JNK inhibitor (InVivogen, San Diego, CA), all at 10 μM) for 1 h prior to stimulation with bacteria and cellular response to corticosteroids was evaluated by real time PCR as described above. To assess the efficacy of inhibitors on suppression of cell activation induced by bacteria cells were pretreated with inhibitors for 1 h or cultured in media, stimulated with H. parainfluenzae for 15 min. Protein lysates were prepared as described above. ERK and hsp27 phosphorylation as downstream targets for TAK1 and p38 MAPK activation, respectively, were assessed by Western blot as described in (Zhang Y et al., J Immunol 2012, in press; Li L B et al., J Allergy Clin Immunol 2004; 114: 1059-69; Zhang Y et al., J Biol Chem 2009; 284: 24542-52).
Toll-like receptor (TLR) engagement by bacteria is the major pathway of cell activation by bacteria (Akira S, Nat Rev Immunol 2004; 4: 499-511). TAK1 phosphorylation represents a key downstream TLR signaling branching point that controls both MAPK and NFKB pathway activation in the cells (Liew F Y et al., Nat Rev Immunol 2005; 5: 446-58). To address the role of TLR signaling pathways in MAPK and TAK1 activation by H. parainfluenzae and the alteration of cellular response to corticosteroids, asthmatic peripheral blood monocytes were preincubated with/without TAK1 and MAPK inhibitors for 1 hour, stimulated with bacteria followed by treatment with DEX or medium and analyzed by real time PCR.

[3] = test system: hsp27 phosphorylation; assay: Western blot of hsp27 phosphorylation as downstream read out for p38 MAPK activation by H. parainfluenzae; assay type: cell-based, human; conditions: 10 μM inhibitor, 15 min H. para, bacteria to cell ratio 1:1, monocytes from asthma patients, FIG. 4D
Protocol: (§2) P38 mitogen activated protein kinase (MAPK) stimulation by bacteria. P38 MAPK activation in response to various concentrations of pathogenic and commensal bacteria as well as time course of p38 activation in response to these bacteria was determined. Cells were stimulated with 0.1 and 1 bacteria per cell, at kinetic time frames from 15 min to 3 h (monocytes), or after 3h of stimulation with bacteria (BAL macrophages). […] Protein concentration was determined by Bradford assay and cell lysates were analyzed for p-p38 MAPK expression by Western blot as described by us earlier (Zhang Y et al., J Immunol 2012, in press).
(§3) The effects of inhibitors on cellular response to corticosteroids. […] (Calbiochem, EMD Serono, Inc., Rockland, MA) (2 μM), the p38 inhibitor, SB203580 (10 μM) (Calbiochem) or the cocktail of the three MAPK inhibitors (SB203580, p38 inhibitor; PD98059, MEK1/ERK inhibitor (Invitrogen, Life Technologies, Grand Island, NY) and SP600125, JNK inhibitor (InVivogen, San Diego, CA), all at 10 μM) for 1 h prior to stimulation with bacteria and cellular response to corticosteroids was evaluated by real time PCR as described above. […]

[4] = Clinical response to oral prednisone burst (FEV1 percent predicted); assay type: in vivo, human; conditions: for FEV1% change after Prednisone burst, (Mean ± SD): prednisone 20 mg by mouth twice daily for 7 days; for FEV1% change after Prednisone burst, (Mean ± SE): one week 40 mg/d oral prednisone
Source text: as §1
Corticosteroid response of asthmatics was classified based on their prebronchodilator morning FEV1% predicted response to one week course of 40 mg/d oral prednisone.

[5] = test system: ERK phosphorylation; assay: Western blot of ERK phosphorylation as downstream read out for TAK1 activation by H. parainfluenzae; assay type: cell-based, human; conditions: 2 μM inhibitor, 15 min H. para, bacteria to cell ratio 1:1, monocytes from asthma patients, FIG. 4D
Protocol: as §2, §3

CC(C)(C)NCC(O)c1ccc(O)c(CO)c1 (centres unmarked) [Albuterol, albuterol]
FEV1% reversal with Albuterol, (Mean ± SD) ([1]; CR asthma, n = 29, 180 μg albuterol inhaled): 15.0 ± 9.4%
FEV1% reversal with Albuterol, (Mean ± SD) ([1]; CS asthma, n = 10, 180 μg albuterol inhaled): 37.2 ± 24.7%
FEV1% reversal with Albuterol, (Mean ± SD) ([1]; Normal controls, n = 12): 5.1 ± 2.4%
FEV1% reversal with Albuterol, (Mean ± SE) ([1]; SR asthma, n = 12): 13.3 ± 2.1 %
FEV1% reversal with Albuterol, (Mean ± SE) ([1]; SS asthma, n = 13): 41.1 ± 8.7%

C[S+]([O-])c1ccc(-c2nc(-c3ccncc3)c(-c3ccc(F)cc3)[nH]2)cc1 (centres unmarked) [P38 MAPK inhibitor, SB203580]
cellular sensitivity to corticosteroids in vitro (MKP-1 mRNA induction by DEX) in the presence of H. parainfluenzae [2]: failed to restore
MKP-1 mRNA induction by H. parainfluenzae [2]: reduced
IL-8 mRNA induction by H. parainfluenzae [2]: reduced
hsp27 phosphorylation by H. parainfluenzae [3]: fully inhibited

C[C@]12C=CC(=O)C=C1CC[C@@H]1[C@@H]2C(=O)C[C@@]2(C)[C@H]1CC[C@]2(O)C(=O)CO [Prednisone, prednisone]
FEV1% change after Prednisone burst, (Mean ± SD) ([4]; CR asthma, n = 29): −0.2±5.9%
FEV1% change after Prednisone burst, (Mean ± SD) ([4]; CS asthma, n = 10): 31.0±23.5%
FEV1% change after Prednisone burst, (Mean ± SE) ([4]; SR asthma, n = 12): 0.8 ± 1.9 %
FEV1% change after Prednisone burst, (Mean ± SE) ([4]; SS asthma, n = 13): 42.2 ± 10.0%

COc1cc(O)c2c(c1)/C=C/C[C@H](O)[C@H](O)C(=O)/C=C\C[C@H](C)OC2=O [TAK1 inhibitor, (5Z)-7-Oxozeaenol]
ERK phosphorylation by H. parainfluenzae [5]: fully inhibited
cellular sensitivity to corticosteroids in vitro (MKP-1 mRNA induction by DEX) in the presence of H. parainfluenzae [2]: restoration of cellular sensitivity to corticosteroids; also recorded: steroid sensitive
MKP-1 mRNA induction by H. parainfluenzae [2]: significant inhibition
IL-8 mRNA induction by H. parainfluenzae [2]: significant inhibition
